Laboratory results: ChEMBL document CHEMBL5143522, “Discovery of novel 6-hydroxybenzothiazole urea derivatives as dual Dyrk1A/α-synuclein aggregation inhibitors with neuroprotective effects” (Eur J Med Chem, 2022)
Active and inactive are the calls of the source. No cut-off for these calls is given here.

Legend:
[1] = target: Dual specificity tyrosine-phosphorylation-regulated kinase 1B (Homo sapiens) (UniProt Q9Y463); assay: Inhibition of human recombinant DYRK1B at 1 uM using KKISGRLSPIMTEQ as substrate incubated in presence of ATP relative to control
[2] = target: T1, Dual specificity tyrosine-phosphorylation-regulated kinase 1A (Homo sapiens, UniProt Q13627); settings: dose 250.0 nM
[3] = target: T1, Dual specificity tyrosine-phosphorylation-regulated kinase 1A; assay: Inhibition of human N-terminal His6-tagged DYRK1A expressed in Escherichia coli BL21 (DE3) using KKISGRLSPIMTEQ as substrate incubated in presence of ATP
[4] = target: T1, Dual specificity tyrosine-phosphorylation-regulated kinase 1A; assay: Inhibition of human Dyrk1A
[5] = target: T2, Dual specificity tyrosine-phosphorylation-regulated kinase 2 (Homo sapiens, UniProt Q92630); assay: Inhibition of Dyrk2 (unknown origin)
T2 sequence (Q92630 whole entry): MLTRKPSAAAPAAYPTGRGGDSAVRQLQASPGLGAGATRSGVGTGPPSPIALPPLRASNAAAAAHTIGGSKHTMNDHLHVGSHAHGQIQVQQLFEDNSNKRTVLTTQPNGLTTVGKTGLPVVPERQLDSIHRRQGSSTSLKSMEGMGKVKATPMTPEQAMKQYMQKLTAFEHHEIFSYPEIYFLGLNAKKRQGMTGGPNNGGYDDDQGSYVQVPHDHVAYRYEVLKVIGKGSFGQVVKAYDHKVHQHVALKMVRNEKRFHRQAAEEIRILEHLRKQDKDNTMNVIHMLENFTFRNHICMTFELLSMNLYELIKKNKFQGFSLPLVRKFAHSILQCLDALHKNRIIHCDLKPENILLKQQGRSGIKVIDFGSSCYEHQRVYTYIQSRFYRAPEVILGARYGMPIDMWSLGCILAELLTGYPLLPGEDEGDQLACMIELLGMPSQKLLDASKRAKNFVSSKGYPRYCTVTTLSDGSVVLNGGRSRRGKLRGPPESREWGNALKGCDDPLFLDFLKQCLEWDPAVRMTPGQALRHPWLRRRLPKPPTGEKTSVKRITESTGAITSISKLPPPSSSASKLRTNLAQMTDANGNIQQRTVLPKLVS

[6] = target: T3, Serine/threonine-protein kinase 17A (Homo sapiens) (UniProt Q9UEE5); assay: Inhibition of STK17A (unknown origin) at 1 uM incubated in presence of ATP by Selectscreen kinase assay relative to control
T3 sequence (whole entry): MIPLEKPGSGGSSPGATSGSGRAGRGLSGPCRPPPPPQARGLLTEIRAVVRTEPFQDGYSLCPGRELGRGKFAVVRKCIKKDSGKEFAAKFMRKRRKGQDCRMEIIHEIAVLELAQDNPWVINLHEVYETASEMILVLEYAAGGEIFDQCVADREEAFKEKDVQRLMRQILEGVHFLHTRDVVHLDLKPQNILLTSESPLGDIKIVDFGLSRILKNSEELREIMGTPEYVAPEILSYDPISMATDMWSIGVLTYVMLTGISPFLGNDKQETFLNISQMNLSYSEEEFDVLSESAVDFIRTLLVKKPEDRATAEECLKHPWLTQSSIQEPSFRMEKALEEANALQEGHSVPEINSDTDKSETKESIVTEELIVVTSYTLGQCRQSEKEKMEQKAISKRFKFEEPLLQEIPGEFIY

[7] = target: Cyclin-dependent kinase 5/CDK5 activator 1 (Homo sapiens) (UniProt Q00535+Q15078); assay: Inhibition of CDK5/p25 (unknown origin) at 1 uM by Selectscreen kinase assay relative to control; assay type: protein-complex assay
[8] = target: Glycogen synthase kinase-3 beta (Homo sapiens) (UniProt P49841); assay: Inhibition of GSK3beta (unknown origin) at 1 uM incubated in presence of ATP by Selectscreen kinase assay relative to control
[9] = target: Casein kinase I isoform delta (Homo sapiens) (UniProt P48730); assay: Inhibition of CSNK1D (unknown origin) at 1 uM incubated in presence of ATP by Selectscreen kinase assay relative to control
[10] = target: T4, Dual specificity tyrosine-phosphorylation-regulated kinase 2 (Homo sapiens) (UniProt Q92630); assay: Inhibition of DYRK2 (unknown origin) at 1 uM incubated in presence of ATP by Selectscreen kinase assay relative to control
T4 sequence (whole entry): T2 sequence (Q92630 whole entry)

[11] = target: Myosin light chain kinase 2, skeletal/cardiac muscle (Homo sapiens) (UniProt Q9H1R3); assay: Inhibition of MLCK2 (unknown origin) at 1 uM incubated in presence of ATP by Selectscreen kinase assay relative to control
[12] = target: Dual specificity protein kinase CLK1 (Homo sapiens) (UniProt P49759); assay: Inhibition of GST-tagged human recombinant CLK1 (129 to 484 residues) expressed in Escherichia coli at 1 uM using GRSRSRSRSRSRSRSR as substrate incubated in presence of ATP by Selectscreen kinase assay relative to control
[13] = target: T5, Serine/threonine-protein kinase haspin (Homo sapiens) (UniProt Q8TF76); assay: Inhibition of GSG2 (unknown origin) at 1 uM incubated in presence of ATP by Selectscreen kinase assay relative to control
T5 sequence (whole entry): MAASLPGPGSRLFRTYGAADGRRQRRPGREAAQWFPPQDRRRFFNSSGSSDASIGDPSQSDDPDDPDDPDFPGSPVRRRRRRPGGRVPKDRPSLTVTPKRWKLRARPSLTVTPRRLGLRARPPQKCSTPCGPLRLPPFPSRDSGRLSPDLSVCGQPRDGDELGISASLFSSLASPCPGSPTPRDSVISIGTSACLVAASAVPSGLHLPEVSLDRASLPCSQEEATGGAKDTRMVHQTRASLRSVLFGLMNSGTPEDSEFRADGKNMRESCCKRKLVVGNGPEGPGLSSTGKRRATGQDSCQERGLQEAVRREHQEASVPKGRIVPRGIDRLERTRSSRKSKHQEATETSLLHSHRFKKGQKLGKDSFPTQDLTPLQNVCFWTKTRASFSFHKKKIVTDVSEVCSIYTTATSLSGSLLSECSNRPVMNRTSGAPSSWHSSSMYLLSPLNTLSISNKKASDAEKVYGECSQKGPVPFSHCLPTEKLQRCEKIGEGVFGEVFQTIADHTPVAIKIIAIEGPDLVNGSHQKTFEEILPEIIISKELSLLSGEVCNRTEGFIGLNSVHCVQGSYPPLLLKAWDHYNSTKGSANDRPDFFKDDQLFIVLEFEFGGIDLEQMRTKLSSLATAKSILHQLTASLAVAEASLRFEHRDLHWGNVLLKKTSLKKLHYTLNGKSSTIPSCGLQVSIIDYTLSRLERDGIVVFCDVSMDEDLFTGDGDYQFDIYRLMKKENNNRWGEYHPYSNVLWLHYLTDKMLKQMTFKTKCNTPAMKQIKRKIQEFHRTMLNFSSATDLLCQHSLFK

[14] = target: Serine/threonine-protein kinase pim-1 (Homo sapiens) (UniProt P11309); assay: Inhibition of PIM1 (unknown origin) at 1 uM incubated in presence of ATP by Selectscreen kinase assay relative to control
[15] = target: Homeodomain-interacting protein kinase 1 (Homo sapiens) (UniProt Q86Z02); assay: Inhibition of HIPK1 (unknown origin) at 1 uM incubated in presence of ATP by Selectscreen kinase assay relative to control
[16] = target: SRSF protein kinase 1 (Homo sapiens) (UniProt Q96SB4); assay: Inhibition of SRPK1 (unknown origin) at 1 uM incubated in presence of ATP by Selectscreen kinase assay relative to control
SH-SY5Y [17] = assay: Neuroprotective activity against 6-OHDA induced cytotoxicity against human SH-SY5Y cells assessed as increase in cell viability at 10 uM by MTT assay; assay type: functional, cell-based
[18] = Permeability of the compound in PBS/EtOH buffer (7:3) incubated for 16 hrs by PAMPA-BBB assay
[19] = target: T1, Dual specificity tyrosine-phosphorylation-regulated kinase 1A; assay: Binding affinity to C-terminal HiBiT-tagged human DYRK1A (28 to 499 residues) stably expressed in HEK293 cells assessed as thermal stability by measuring increase in DYRK1A in soluble fraction at 10 to 30 uM incubated for 3.5 mins by ITDRF-CETSA analysis; assay type: cell-based; settings: dose 10-30 µM
[20] = target: T1, Dual specificity tyrosine-phosphorylation-regulated kinase 1A; assay: Inhibition of DYRK1A in human HeLa cells transiently expressing GFP-SF3B1 fusion protein assessed as reduction in SF3B1 phosphorylation incubated for 24 hrs by immunoblot analysis; assay type: cell-based
SH-SY5Y [21] = assay: Neuroprotective activity against alpha-syn induced cytotoxicity against human SH-SY5Y cells assessed as increase in cell viability at 10 uM by MTT assay; assay type: functional, cell-based

Dual specificity tyrosine-phosphorylation-regulated kinase 1B (Homo sapiens), sequence (Q9Y463 whole entry, looked up): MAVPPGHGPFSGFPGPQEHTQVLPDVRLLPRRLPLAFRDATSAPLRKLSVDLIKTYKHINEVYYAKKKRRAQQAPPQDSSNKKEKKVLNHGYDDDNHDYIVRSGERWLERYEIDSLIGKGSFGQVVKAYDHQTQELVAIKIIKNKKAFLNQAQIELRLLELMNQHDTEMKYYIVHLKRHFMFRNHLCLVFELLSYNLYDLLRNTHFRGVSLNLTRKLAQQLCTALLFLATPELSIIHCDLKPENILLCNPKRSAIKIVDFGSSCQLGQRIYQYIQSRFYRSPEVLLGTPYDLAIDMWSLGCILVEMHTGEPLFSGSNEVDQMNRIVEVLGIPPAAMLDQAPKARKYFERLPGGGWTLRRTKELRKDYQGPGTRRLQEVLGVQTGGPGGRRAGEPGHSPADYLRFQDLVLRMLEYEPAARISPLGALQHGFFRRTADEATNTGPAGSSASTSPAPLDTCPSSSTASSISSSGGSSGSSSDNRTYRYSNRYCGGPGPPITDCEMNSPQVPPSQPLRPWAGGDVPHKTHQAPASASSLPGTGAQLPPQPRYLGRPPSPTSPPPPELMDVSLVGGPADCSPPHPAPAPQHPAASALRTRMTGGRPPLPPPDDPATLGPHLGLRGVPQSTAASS
Dual specificity protein kinase CLK1 (Homo sapiens), sequence (P49759 whole entry, looked up, the tested form may be a part): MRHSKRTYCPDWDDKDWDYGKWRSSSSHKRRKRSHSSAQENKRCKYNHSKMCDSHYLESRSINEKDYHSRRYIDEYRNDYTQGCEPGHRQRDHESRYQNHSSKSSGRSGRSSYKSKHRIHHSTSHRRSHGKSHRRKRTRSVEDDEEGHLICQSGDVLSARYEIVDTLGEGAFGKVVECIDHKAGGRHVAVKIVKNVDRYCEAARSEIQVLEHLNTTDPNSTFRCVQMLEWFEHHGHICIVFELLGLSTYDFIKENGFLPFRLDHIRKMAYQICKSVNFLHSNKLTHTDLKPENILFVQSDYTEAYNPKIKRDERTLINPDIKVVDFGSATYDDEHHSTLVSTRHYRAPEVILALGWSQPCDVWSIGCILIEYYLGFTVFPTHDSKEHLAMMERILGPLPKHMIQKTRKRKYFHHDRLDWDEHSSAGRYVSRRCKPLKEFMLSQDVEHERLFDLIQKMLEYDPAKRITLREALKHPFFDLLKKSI
SRSF protein kinase 1 (Homo sapiens), sequence (Q96SB4 whole entry): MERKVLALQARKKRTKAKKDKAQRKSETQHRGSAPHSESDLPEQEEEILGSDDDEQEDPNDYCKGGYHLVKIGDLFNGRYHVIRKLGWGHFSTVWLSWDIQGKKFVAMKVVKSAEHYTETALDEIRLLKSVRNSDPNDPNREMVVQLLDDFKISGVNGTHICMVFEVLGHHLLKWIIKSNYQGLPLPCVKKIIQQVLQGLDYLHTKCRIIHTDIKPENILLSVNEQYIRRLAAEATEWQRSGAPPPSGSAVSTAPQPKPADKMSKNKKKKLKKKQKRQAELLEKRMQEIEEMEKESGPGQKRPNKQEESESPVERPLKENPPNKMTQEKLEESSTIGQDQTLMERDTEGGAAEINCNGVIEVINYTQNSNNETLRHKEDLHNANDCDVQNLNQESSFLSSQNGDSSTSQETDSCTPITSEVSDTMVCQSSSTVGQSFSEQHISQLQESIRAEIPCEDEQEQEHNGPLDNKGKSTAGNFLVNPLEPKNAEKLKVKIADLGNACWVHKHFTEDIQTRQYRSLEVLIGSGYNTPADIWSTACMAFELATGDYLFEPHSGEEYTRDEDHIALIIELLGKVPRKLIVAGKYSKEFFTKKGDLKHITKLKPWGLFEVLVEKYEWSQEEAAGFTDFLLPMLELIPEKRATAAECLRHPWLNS
Serine/threonine-protein kinase pim-1 (Homo sapiens), sequence (P11309 whole entry, looked up): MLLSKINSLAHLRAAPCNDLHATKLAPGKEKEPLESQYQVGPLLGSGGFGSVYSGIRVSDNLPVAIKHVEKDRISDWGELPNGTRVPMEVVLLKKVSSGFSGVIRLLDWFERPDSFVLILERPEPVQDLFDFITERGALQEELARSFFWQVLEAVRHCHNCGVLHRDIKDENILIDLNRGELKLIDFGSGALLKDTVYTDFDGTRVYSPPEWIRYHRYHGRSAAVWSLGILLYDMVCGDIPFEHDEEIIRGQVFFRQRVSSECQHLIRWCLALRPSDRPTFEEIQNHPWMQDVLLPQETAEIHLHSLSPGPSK
Cyclin-dependent kinase 5/CDK5 activator 1 (Homo sapiens), sequence (Q00535 whole entry): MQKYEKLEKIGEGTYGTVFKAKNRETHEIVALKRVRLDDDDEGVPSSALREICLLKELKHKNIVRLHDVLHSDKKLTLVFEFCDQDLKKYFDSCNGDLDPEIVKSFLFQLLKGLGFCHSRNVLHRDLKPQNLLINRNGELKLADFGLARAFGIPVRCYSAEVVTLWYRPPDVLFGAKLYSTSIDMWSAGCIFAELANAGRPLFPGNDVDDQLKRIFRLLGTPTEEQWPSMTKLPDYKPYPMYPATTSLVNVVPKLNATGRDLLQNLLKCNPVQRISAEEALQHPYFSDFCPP
Cyclin-dependent kinase 5/CDK5 activator 1 (Homo sapiens), sequence (Q15078 99-307 partner limits assumed): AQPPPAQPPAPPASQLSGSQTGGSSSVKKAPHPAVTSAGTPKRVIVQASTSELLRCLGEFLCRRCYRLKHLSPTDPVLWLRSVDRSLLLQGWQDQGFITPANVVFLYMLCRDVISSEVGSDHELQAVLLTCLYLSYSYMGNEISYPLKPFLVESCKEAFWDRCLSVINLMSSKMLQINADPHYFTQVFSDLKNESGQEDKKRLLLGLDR
Glycogen synthase kinase-3 beta (Homo sapiens), sequence (P49841 whole entry, looked up, canonical isoform): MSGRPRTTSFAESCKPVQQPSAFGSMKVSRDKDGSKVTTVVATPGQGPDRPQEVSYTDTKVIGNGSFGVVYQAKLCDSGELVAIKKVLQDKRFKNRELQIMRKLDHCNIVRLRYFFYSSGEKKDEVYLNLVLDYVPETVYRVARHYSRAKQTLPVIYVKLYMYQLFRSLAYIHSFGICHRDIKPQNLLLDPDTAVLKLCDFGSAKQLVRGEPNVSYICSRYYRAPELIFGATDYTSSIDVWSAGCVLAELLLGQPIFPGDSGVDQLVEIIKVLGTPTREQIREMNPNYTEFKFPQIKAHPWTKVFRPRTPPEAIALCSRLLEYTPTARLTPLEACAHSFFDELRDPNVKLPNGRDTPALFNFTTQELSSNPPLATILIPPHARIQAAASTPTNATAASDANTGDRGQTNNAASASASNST
Casein kinase I isoform delta (Homo sapiens), sequence (P48730 whole entry, looked up, canonical isoform): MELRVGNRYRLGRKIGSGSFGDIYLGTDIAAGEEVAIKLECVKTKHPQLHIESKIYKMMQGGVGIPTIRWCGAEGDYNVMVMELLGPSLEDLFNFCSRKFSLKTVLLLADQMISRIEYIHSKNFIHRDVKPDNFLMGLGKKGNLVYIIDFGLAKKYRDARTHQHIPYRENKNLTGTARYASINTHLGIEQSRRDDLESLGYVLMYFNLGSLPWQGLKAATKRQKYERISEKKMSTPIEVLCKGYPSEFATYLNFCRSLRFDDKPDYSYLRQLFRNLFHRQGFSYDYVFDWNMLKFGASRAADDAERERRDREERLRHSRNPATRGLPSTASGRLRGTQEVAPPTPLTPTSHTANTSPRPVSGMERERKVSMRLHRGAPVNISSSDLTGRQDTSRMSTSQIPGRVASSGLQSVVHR
Homeodomain-interacting protein kinase 1 (Homo sapiens), sequence (Q86Z02 whole entry, looked up): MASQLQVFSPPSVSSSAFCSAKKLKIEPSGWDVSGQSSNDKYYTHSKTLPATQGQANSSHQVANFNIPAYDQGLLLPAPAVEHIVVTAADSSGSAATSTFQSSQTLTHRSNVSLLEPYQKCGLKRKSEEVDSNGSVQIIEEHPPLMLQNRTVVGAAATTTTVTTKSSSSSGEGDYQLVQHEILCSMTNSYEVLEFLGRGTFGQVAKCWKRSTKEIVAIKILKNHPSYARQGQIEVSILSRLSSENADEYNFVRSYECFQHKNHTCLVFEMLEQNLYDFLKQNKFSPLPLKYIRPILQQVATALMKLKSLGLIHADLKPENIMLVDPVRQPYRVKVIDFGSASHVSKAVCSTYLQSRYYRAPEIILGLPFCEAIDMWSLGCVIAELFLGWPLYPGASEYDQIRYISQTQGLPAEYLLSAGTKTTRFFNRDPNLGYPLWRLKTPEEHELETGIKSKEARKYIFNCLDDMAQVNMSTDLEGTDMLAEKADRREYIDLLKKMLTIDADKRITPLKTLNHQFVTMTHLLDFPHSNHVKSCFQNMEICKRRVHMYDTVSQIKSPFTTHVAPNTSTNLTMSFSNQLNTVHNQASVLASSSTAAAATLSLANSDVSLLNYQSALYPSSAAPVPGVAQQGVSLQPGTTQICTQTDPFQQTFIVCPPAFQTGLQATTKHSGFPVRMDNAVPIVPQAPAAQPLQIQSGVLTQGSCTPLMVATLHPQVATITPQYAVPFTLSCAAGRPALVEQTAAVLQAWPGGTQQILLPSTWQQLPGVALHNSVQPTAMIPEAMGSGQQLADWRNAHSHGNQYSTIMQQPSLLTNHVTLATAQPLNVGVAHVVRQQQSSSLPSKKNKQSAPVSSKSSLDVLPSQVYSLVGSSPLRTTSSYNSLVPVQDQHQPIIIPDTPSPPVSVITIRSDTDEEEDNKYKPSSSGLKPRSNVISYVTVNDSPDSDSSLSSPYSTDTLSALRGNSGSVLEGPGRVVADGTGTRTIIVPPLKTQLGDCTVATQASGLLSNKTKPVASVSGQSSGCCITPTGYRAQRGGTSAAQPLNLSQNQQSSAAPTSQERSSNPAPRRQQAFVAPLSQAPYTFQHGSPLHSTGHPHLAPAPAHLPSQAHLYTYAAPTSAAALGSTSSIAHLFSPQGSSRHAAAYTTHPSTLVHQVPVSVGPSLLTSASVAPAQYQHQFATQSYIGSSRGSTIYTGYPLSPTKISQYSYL

O=C(Nc1ccc(NC(=O)c2c(F)cc(F)cc2F)cc1)Nc1nc2ccc(O)cc2s1
inhibition [1]: 17%

O=C(Nc1ccc(NC(=O)c2cccc(Br)c2)cc1)Nc1nc2ccc(O)cc2s1
inhibition [1]: 13%

O=C(Nc1ccc(NC(=O)c2cc(Cl)cc(Cl)c2)cc1)Nc1nc2ccc(O)cc2s1
inhibition [1]: 11%

O=C(Nc1ccc(NC(=O)c2cccc(F)c2)cc1)Nc1nc2ccc(O)cc2s1
inhibition [1]: 9%

O=C(Nc1cccc(NS(=O)(=O)c2cccc(F)c2)c1)Nc1nc2ccc(O)cc2s1
inhibition [1]: 10%

O=C(Nc1ccc(NC(=O)c2cc(F)cc(F)c2)cc1)Nc1nc2ccc(O)cc2s1
inhibition [1]: 11%

O=C(Nc1ccc(NS(=O)(=O)c2cc(F)cc(F)c2)cc1)Nc1nc2ccc(O)cc2s1
inhibition [1]: 9%

O=C(Nc1ccc(NC(=O)c2ccccc2)cc1)Nc1nc2ccc(O)cc2s1
inhibition [2]: 65% | IC50 [3]: 154 nM | inhibition [1]: 34%

O=C(Nc1ccc(NS(=O)(=O)c2ccccc2)cc1)Nc1nc2ccc(O)cc2s1
inhibition [1]: 18%

CN1CCN(C(=O)c2ccc(NC(=O)Nc3nc4ccc(O)cc4s3)cc2)CC1
IC50 [4]: 93 nM | IC50 [5]: > 5000 nM

O=C(Nc1ccc(NC(=O)C2CC2)cc1)Nc1nc2ccc(O)cc2s1
inhibition [2]: 62% | IC50 [3]: 159 nM | inhibition [1]: 29%

O=C(Nc1ccc(NS(=O)(=O)c2cccc(F)c2)cc1)Nc1nc2ccc(O)cc2s1
inhibition [6]: 29% | inhibition [7]: 5% | inhibition [2]: 79% | inhibition [8]: 15% | IC50 [3]: 45 nM | inhibition [9]: 15% | inhibition [1]: 15% | inhibition [10]: 27% | inhibition [11]: 18% | inhibition [12]: 7% | inhibition [13]: 3% | inhibition [14]: 3% | inhibition [15]: 2% | inhibition [16]: 4%

O=C(Nc1ccc(NC(=O)C2CCC2)cc1)Nc1nc2ccc(O)cc2s1
inhibition [1]: 26%

O=C(Nc1ccc(NC(=O)C2CCCCC2)cc1)Nc1nc2ccc(O)cc2s1
inhibition [1]: 25%

O=C(Nc1ccc(NC(=O)c2ccc(Cl)cc2)cc1)Nc1nc2ccc(O)cc2s1
inhibition [1]: 6%

O=C(Nc1ccc(NC(=O)c2cc(F)c(F)c(F)c2)cc1)Nc1nc2ccc(O)cc2s1
inhibition [1]: 10%

O=C(Nc1ccc(NC(=O)c2ccccc2F)cc1)Nc1nc2ccc(O)cc2s1
inhibition [1]: 17%

Cc1cccc(C(=O)Nc2ccc(NC(=O)Nc3nc4ccc(O)cc4s3)cc2)c1
inhibition [1]: 30%

COc1ccc2c(c1)[nH]c1c(C)nccc12
Activity (SH-SY5Y [17]): Active

O=C(Nc1ccc(NC(=O)c2cccc(C(F)(F)F)c2)cc1)Nc1nc2ccc(O)cc2s1
inhibition [1]: 14%

O=C(Cc1ccccc1)Nc1ccc(NC(=O)Nc2nc3ccc(O)cc3s2)cc1
Papp at 16 h [18]: 7.9 ×10⁻⁶ cm/s | inhibition [6]: 28% | inhibition [7]: 6% | inhibition [2]: 75% | inhibition [8]: 8% | IC50 [3]: 20 nM | inhibition [9]: 6% | inhibition [10]: 20% | Activity [19]: Active | inhibition [12]: 21% | IC50 [20]: 690 nM | inhibition [14]: 3% | inhibition [16]: 4%

O=C(Nc1ccc(NC(=O)c2ccc(F)cc2)cc1)Nc1nc2ccc(O)cc2s1
inhibition [1]: 13%

O=C(Nc1ccc(NC(=O)c2cccc(Cl)c2)cc1)Nc1nc2ccc(O)cc2s1
inhibition [1]: 18%

O=C(Nc1ccc(NC(=O)C2CCNCC2)cc1)Nc1nc2ccc(O)cc2s1
Papp at 16 h [18]: 4.4 ×10⁻⁶ cm/s | Activity (SH-SY5Y [17]): Active | inhibition [2]: 69% | IC50 [3]: 177 nM | inhibition [1]: 51%

CC(=O)Nc1ccc(NC(=O)Nc2nc3ccc(O)cc3s2)cc1
inhibition [1]: 65%

N#Cc1cccc(C(=O)Nc2ccc(NC(=O)Nc3nc4ccc(O)cc4s3)cc2)c1
inhibition [1]: 36%

O=C(Nc1ccc(NS(=O)(=O)c2ccccc2F)cc1)Nc1nc2ccc(O)cc2s1
inhibition [1]: 19%

O=C(Nc1ccc(NC(=O)c2cccc(O)c2)cc1)Nc1nc2ccc(O)cc2s1
Papp at 16 h [18]: 6.5 ×10⁻⁶ cm/s | inhibition [1]: 46% | Activity (SH-SY5Y [21]): Active

N#Cc1ccc(C(=O)Nc2ccc(NC(=O)Nc3nc4ccc(O)cc4s3)cc2)cc1
inhibition [1]: 23%

CCn1cc(C(=O)O)c(=O)c2cc(F)c(N3CCNCC3)cc21 [NORFLOXACIN]
Papp at 16 h [18]: 1.1 ×10⁻⁶ cm/s
